Data from US6087401A, “Cyclopentenones, process for preparing the same, and the use thereof” (Takara Shuzo Co., Ltd., priority 1996, dated 2000).
Values after ≈ are worked out from the molar mass of the structure shown. Like-named read-outs stand apart in the source and are kept apart here.

Key:
HL-60 cells [1] = test: apoptosis-inducing activity to HL-60 cells; format: cell-based, human; conditions: Homo sapiens
Method: (2) The cyclopentenone prepared in Example 2-(1) was used for preparing aqueous solutions of the cyclopentenone in the concentrations of 2.86 mM, 955 μM, 318 μM, 106 μM, 35 μM, 12 μM and […]. Then said heat-treated substance was adjusted to pH 7.0 with NaOH and the apoptosis-inducing activity to HL-60 cells was measured as follows.
To 1.35 ml of this suspension was added 0.15 ml of the above-mentioned cyclopentenone solution and the mixture was incubated at […] for 20 hours in the presence of 5% of carbon dioxide gas.

HL-60 cells [2] = test: cancer cell differentiation (Wright-Giemsa stain); format: cell-based, human; conditions: control around 10%
Method: (2) To HL-60 cells was added 10^-4 μg/ml of the cyclopentenone and an incubation by the same manner as in Example 15-(1) was conducted for three days. […] The result was that the differentiated cells were around 10% in the control where no cyclopentenone was added while, in the fractions to which the cyclopentenone was added, 50% or more cells were differentiated to monocyte- or to macrophage-like cells.
The result was that the differentiated cells were around 10% in the control where no cyclopentenone was added while, in the fraction to which 0.005 μg/ml of the cyclopentenone was added, 25% or more cells were differentiated to mature bone marrow cells.

[3] = tested on: Bacillus subtilis (IFO 3034); test: growth turbidity, microorganism (17); format: cell-based; conditions: 8 h, control 267
Excerpt: They were testing microorganism (13): Escherichia coli HB101 (ATCC 33694); testing microorganism (14): Salmonella typhimurium LT-2 (ATCC 27106); testing microorganism (15): Pseudomonas aeruginosa (IFO 3080); testing microorganism (16): Staphylococcus aureus 3A (NCTC 8319); testing microorganism (17): Bacillus subtilis (IFO 3034); and testing microorganism (18): Streptococcus mutans (GS5; stored at National Institute of Health).
The testing microorganisms were subjected to a seed culture overnight in an L-broth (1% tryptone, 0.5% yeast extract and […]; pH 7.0). The seed culture (5 μl) was inoculated to a medium to which 25-200 μg/ml of cyclopentenone was added to 5 ml of L-both and also to a medium to which nothing was added and a shake incubation was conducted at 37° C. to measure the growth. At the initiation of the incubation and also at eight hours thereafter, turbidity of the culture was measured using a Fuji Digital Turbidimeter (sold from Fuji Kogyo KK; manufactured by Akiyama Denki Seisakusho) under the condition that the adjusted scale was 82.3 and the growth of the tested microorganism was measured from the value (growth turbidity) obtained by deducting the turbidity at the initiation of incubation from that after eight hours. Incidentally, in the case of the testing microorganism (18), a brain heart infusion was used instead of L-broth.

[4] = tested on: Lactobacillus fructivorans (IFO 13118); test: antibacterial activity to hiochi bacteria, microorganism A; format: cell-based; conditions: five days; for Growth Turbidity (OD600): control 0.96
Method: (§1) The testing microorganism was subjected to a stationary incubation for five days in an SI medium (Japan Brewery Association) containing 10% of ethanol to give a seed microorganism. The seed microorganism (0.1%) was added to 100 ml of 10% ethanol-containing SI medium to which the cyclopentenone was added in an amount of 0, 25, 50, 75 or 100 μg/ml (in terms of final concentration), then a stationary incubation was conducted for five days and the turbidity was measured. In measuring the turbidity, the value of OD600 was measured using an absorbance meter. A value of OD600 of the medium to which no testing microorganism was inoculated was deducted from the above value and this (growth turbidity) was used for the growth of the tested microorganism.
(§2) The tested microorganisms were as follows. Thus, Lactobacillus fructivorans (IFO 13118) (testing microorganism A), Lactobacillus fructivorans (JCM 1198) (testing microorganism B) and Lactobacillus homohiochii (IFO 13120) (testing microorganism C) as true hiochi bacteria while Lactobacillus rhamnosus (IFO 3532) (testing microorganism D) was used as hiochi lactobacteria.

[5] = tested on: Lactobacillus homohiochii (IFO 13120); test: antibacterial activity to hiochi bacteria, microorganism C; format: cell-based; conditions: five days; for Growth Turbidity (OD600): control 1.61
Method: as §1, §2

[6] = tested on: Lactobacillus rhamnosus (IFO 3532); test: antibacterial activity to hiochi lactobacteria, microorganism D; format: cell-based; conditions: five days; for Growth Turbidity (OD600): control 0.35
Method: as §1, §2

[7] = tested on: Legionella pneumophila (isolated from a washing of human bronchus); format: cell-based; conditions: 12 ppm, common logarithm
[8] = tested on: Legionella pneumophila (isolated from bathtub water of hot spring); format: cell-based; conditions: 12 ppm, common logarithm
[9] = tested on: Saccharomyces cerevisiae ATCC 9763; test: antimicrobial activity to fungi; format: cell-based; conditions: high concentrations
[10] = tested on: Candida albicans TIMM 0136; test: antimicrobial activity to fungi; format: cell-based; conditions: high concentrations
[11] = tested on: Aspergillus fumigatus TIMM 1776; test: antimicrobial activity to fungi; format: cell-based; conditions: high concentrations
Sarcoma-180 = test: life-prolonging effect, subcutaneous Sarcoma-180; format: in vivo, female mice of ICR strain; conditions: about 80 mg/kg/day in drinking water, 40th day; control two out of eight
Method: (2) Sixteen female mice of ICR strain of six weeks age (body weight: about 26 g) were used. Sarcoma-180 (5.5×10^6 cells/mouse) was subcutaneously injected into abdomen whereupon a control group (8 mice) and a group administered with the cyclopentenone (8 mice) were made.
The cyclopentenone was diluted with tap water and freely given to the cyclopentenone-administered group to make the dose of the cyclopentenone about 80 mg/kg/day using a water-supplying bottle. Tap water was similarly given to the control group. In both groups, feed was freely given during the course of the experiment.

Mouse leukemia P-388 = test: life-prolonging effect, leukemia P-388; conditions: 10 mg/kg/day i.p., five days
[12] = stability of the cyclopentenone in solution (TLC)

## O=C1C=CC(O)C1O (centres unmarked) [the cyclopentenone, 4,5-dihydroxy-2-cyclopenten-1-one]
HL-60 cells [1]; HL-60, 20 h, read-out: final concentration at which viable cell numbers and cell viability decreased
  minimal effective concentration: ≥ 10.6 µM
HL-60 cells [1]; HL-60, 20 hours, 35 μM solution added, read-out: final concentration at which apoptosis was induced (DNA molecular weight became small, cell shape changed)
  minimal effective concentration: 3.5 µM
HL-60 cells [2]; 0.005 μg/ml, three or six days
  cells differentiated to mature bone marrow cells: ≥ 25%
HL-60 cells [2]; 10^-4 μg/ml, three days
  cells differentiated to monocyte- or to macrophage-like cells: ≥ 50%
[3]; 25 μg/ml
  Growth Turbidity: 145
[3]; 50 μg/ml
  Growth Turbidity: 9
[3]; 100 μg/ml
  Growth Turbidity: 0
[3]; 200 μg/ml
  Growth Turbidity: 0
[4]; 25 μg/ml
  Growth Turbidity (OD600): 0.17
[4]; 50 μg/ml
  Growth Turbidity (OD600): 0.02
[4]; 75 μg/ml
  Growth Turbidity (OD600): 0
[4]; Fructilactobacillus fructivorans, IFO13118, 120 h, read-out: concentration completely inhibiting growth
  MIC: 75 µg/mL (≈ 657 µM)
[5]; 25 μg/ml
  Growth Turbidity (OD600): 0.32
[5]; 50 μg/ml
  Growth Turbidity (OD600): 0.08
[5]; 75 μg/ml
  Growth Turbidity (OD600): 0
[5]; IFO13120, 120 h, read-out: concentration completely inhibiting growth
  MIC: 75 µg/mL (≈ 657 µM)
[6]; 25 μg/ml
  Growth Turbidity (OD600): 0.04
[6]; 50 μg/ml
  Growth Turbidity (OD600): 0.01
[6]; 75 μg/ml
  Growth Turbidity (OD600): 0
[6]; Lacticaseibacillus rhamnosus, IFO3532, 120 h, read-out: concentration completely inhibiting growth
  MIC: 75 µg/mL (≈ 657 µM)
[7]; 16 h, 0 ppm 6.9
  Numbers of Tested Microorganism Cells after Incubation: 5.7 log10 CFU/ml
[7]; 96 h, 0 ppm 8.7
  Numbers of Tested Microorganism Cells after Incubation: 8.3 log10 CFU/ml
[8]; 16 h, 0 ppm 7.4
  Numbers of Tested Microorganism Cells after Incubation: 6.1 log10 CFU/mL
[8]; 96 h, 0 ppm 8.6
  Numbers of Tested Microorganism Cells after Incubation: 8.6 log10 CFU/mL
[9]
  antimicrobial activity: antimicrobial activity at high concentrations
[10]
  antimicrobial activity: antimicrobial activity at high concentrations
[11]
  antimicrobial activity: antimicrobial activity at high concentrations
Sarcoma-180
  numbers of living mice (out of eight): seven
Mouse leukemia P-388
  life-prolonging rate: 306.1%
Mouse leukemia P-388; control 10.3 days
  average surviving days: 31.4 days
[12]; 25 mM in 10 mM tris (pH 10), room temperature, immediately after dissolution
  stability: rapid decomposition
[12]; in water, 121° C., 30 minutes
  stability: most of the cyclopentenone was left nondecomposed
